Measurements taken from US12358907B2, “Substituted pyrrolidine amides III” (GRÜNENTHAL GMBH, priority 2019, dated 2025).
Read-outs that look alike come from different tables or passages of the source.

What was measured:
[1] = biological target: human glucocorticoid receptor (Homo sapiens (Human), UniProt P04150); assay: Human glucocorticoid receptor (hGR) ligand-binding assay (3H-dexamethasone competition, IM9 cytosol); details: read-out: % inhibition hGR at 1 μM
Method: Preferably, the glucocortitcoid receptor extracted from cytosol of IM9 cells is used for competitive radioligand binding assays to calculate percentage inhibition of the binding of radiolabeled ligand 3H-dexamethasone at the human glucocorticoid receptor.
The human lymphoblast cell line IM9 (ATCC, Bethesda, MD) was cultivated in RPMI 1640 media containing 10% fetal bovine serum, penicillin (100 U/ml), streptomycin (100 μg/ml), and 2 mM L-glutamine at 37° and 7% CO2 in a humidified incubator. Cells were centrifuged for 10 minutes at 1500 g and were washed in PBS and repelleted. Cell were then resuspended in homogenization buffer consisting of: 10 mM TES, 10 mM sodium molybdate, 1 mM EDTA, pH 7.4, 20 mM 2-mercaptoethanol, and 10% glycerol. Disruption of the cells was performed by nitrogen cavitation using 2×15 minutes at 600 to 750 psi nitrogen in a N2 cavitator at 0° C. The cell preparation was then centrifuged at 27,000 g for 15 minutes, and the resultant supernatant (=cytosol of IM9 cells) was centrifuged at 103,000 g for 60 minutes at 4° C. The amount of protein in the supernatant fraction was determined using a BCA assay kit and aliquots were snap frozen in a dry ice-acetone bath and stored at −70° C. Competitive binding assays were done in duplicate in homogenization buffer with a total volume of 200 μl. To this end, 1 mg of IM9 cytosol, 0.05 μCi (1.5 nM) of 3H-dexamethasone and unlabeled Example compounds as competitor compounds at 1 μM were mixed. The reaction was stopped after incubation at 0° C. for 16 to 18 hours by the addition of 100 μl of a charcoal-dextran mixture (2% activated charcoal, 0.5% dextran in 10 mM Tris, 1 mM EDTA, pH 7.4). Another incubation step at 0° C. for 10 minutes followed before the samples were centrifuged for 5 minutes at 8200 g. 100 μl of the supernatant) was finally assayed for radioactivity by liquid scintillationspectrometry, and percentage inhibition of 3H-dexamethasone binding was calculated.

[2] = biological target: glucocorticoid receptor (GAL4 DBD-GR) (Homo sapiens (Human), UniProt P04150); assay: GR cell-based assays (GRE agonist / GRE antagonist), CHO-Gal4/GR luciferase reporter
Procedure, shortened: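 CHO cells stably carrying GAL4 DBD-GR ligand-binding-domain fusion and a GAL4-UAS firefly luciferase reporter were treated in Opti-MEM with 8 half-log concentrations from 10 μM to 0.003 μM (0.5% DMSO, quadruplicates). Antagonist mode measured repression of beclomethasone-induced signal. Luminescence after lysis gave EC50 or IC50.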

Sequence of human glucocorticoid receptor (P04150 whole entry): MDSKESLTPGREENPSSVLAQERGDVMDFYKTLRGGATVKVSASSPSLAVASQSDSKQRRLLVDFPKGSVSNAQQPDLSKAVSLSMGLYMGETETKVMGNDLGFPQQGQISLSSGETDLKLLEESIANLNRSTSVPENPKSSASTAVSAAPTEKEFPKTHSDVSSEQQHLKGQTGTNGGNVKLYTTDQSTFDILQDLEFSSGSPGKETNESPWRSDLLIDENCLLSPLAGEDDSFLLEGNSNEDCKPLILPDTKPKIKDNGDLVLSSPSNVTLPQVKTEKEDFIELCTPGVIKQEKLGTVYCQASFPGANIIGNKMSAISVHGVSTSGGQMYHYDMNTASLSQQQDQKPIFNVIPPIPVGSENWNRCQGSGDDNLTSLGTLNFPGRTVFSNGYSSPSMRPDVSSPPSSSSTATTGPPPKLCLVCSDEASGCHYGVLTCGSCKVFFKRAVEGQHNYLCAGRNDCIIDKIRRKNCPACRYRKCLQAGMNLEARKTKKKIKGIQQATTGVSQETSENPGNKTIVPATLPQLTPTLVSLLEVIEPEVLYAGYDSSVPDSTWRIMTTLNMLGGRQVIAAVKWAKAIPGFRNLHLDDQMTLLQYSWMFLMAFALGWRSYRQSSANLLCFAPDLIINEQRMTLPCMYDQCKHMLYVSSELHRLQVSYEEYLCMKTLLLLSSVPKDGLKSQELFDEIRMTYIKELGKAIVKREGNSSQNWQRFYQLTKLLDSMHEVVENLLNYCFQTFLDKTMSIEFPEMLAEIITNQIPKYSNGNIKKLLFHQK
Sequence of glucocorticoid receptor (GAL4 DBD-GR) (P04150 524-758): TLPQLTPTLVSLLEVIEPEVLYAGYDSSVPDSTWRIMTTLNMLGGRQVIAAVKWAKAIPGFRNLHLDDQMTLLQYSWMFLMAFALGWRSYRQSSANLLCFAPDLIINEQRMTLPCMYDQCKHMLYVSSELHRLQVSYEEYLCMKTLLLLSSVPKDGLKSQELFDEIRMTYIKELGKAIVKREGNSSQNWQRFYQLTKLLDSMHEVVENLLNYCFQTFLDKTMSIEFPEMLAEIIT

Row | inhibition at 1 µM [1] [%] | IC50 ([2]; read-out: IC50 or EC50) [µM] | IC50 ([2]; CHO-Gal4/GR reporter cells, agonist mode (EC50) or antagonist mode against beclometasone (IC50), 6 hour incubation) [µM] | SMILES
1 | 95 | 0.1 to 1 |  | O=C(N[C@@H]1[C@@H](c2ccccc2)N(c2ccc3c(ccn3-c3ccc(F)cc3)c2)C(=O)C12CC2)C1CC1 (racemic) [Example 5, N-trans-(5-(1-(4-fluorophenyl)-1H-indol-5-yl)-4-oxo-6-phenyl-5-azaspiro[2.4]heptan-7-yl)cyclopropanecarboxamide]
2 | 95 | 0.1 to 1 |  | CC(F)(F)C(=O)N[C@H]1[C@H](c2ccccc2)N(c2ccc3c(cnn3-c3ccc(F)cc3)c2)C(=O)C1(C)C [Example 4, 2,2-Difluoro-N-[(2S,3R)-1-[1-(4-fluorophenyl)-1H-indazol-5-yl]-4,4-dimethyl-5-oxo-2-phenyl-pyrrolidin-3-yl]-propionamide]
3 | 98 | < 0.1 |  | O=C(N[C@@H]1[C@@H](c2ccccc2)N(c2ccc3c(cnn3-c3ccc(F)cc3)c2)C(=O)C12CC2)C1CC1 (racemic) [Example 3, N-[rac-(6R,7S)-5-[1-(4-Fluorophenyl)-1H-indazol-5-yl]-4-oxo-6-phenyl-5-azaspiro[2.4]heptan-7-yl]-cyclopropanecarboxylic acid amide]
4 | 12 |  |  | Cn1cc(-n2ncc3cc(N4C(=O)C(C)(C)[C@@H](NC(=O)c5cncs5)[C@@H]4c4ccccc4)ccc32)ccc1=O [Example 24, N-[(2S,3R)-4,4-Dimethyl-1-[1-(1-methyl-6-oxo-1H-pyridin-3-yl)-1H-indazol-5-yl]-5-oxo-2-phenyl-pyrrolidin-3-yl]-thiazole-5-carboxylic acid amide]
5 | 20 |  |  | Cn1cc(-n2ncc3cc(N4C(=O)C(C)(C)[C@H](NC(=O)c5cnco5)[C@H]4c4ccccc4)ccc32)ccc1=O [Example 13, N-[(2R,3S)-4,4-Dimethyl-1-[1-(1-methyl-6-oxo-1H-pyridin-3-yl)-1H-indazol-5-yl]-5-oxo-2-phenyl-pyrrolidin-3-yl]-oxazole-5-carboxylic acid amide]
6 | 83 |  |  | Cn1ccc(C(=O)N[C@@H]2[C@@H](c3ccccc3)N(c3ccc4c(cnn4-c4ccc(=O)n(C)c4)c3)C(=O)C2(C)C)n1 [Example 12, N-[(2R,3S)-4,4-Dimethyl-1-[1-(1-methyl-6-oxo-1H-pyridin-3-yl)-1H-indazol-5-yl]-5-oxo-2-phenyl-pyrrolidin-3-yl]-1-methyl-1H-pyrazole-3-carboxylic acid amide]
7 | 97 | 0.1 to 1 |  | Cc1cnc(C(=O)N[C@@H]2[C@@H](c3ccccc3)N(c3ccc4c(cnn4-c4ccc(=O)n(C)c4)c3)C(=O)C2(C)C)s1 [Example 6, N-[(2R,3S)-4,4-Dimethyl-1-[1-(1-methyl-6-oxo-1H-pyridin-3-yl)-1H-indazol-5-yl]-5-oxo-2-phenyl-pyrrolidin-3-yl]-5-methyl-thiazole-2-carboxylic acid amide]
8 | 99 |  | < 0.1 | CC1(C)C(=O)N(c2ccc3c(cnn3-c3ccc(F)cc3)c2)[C@H](c2ccccc2)[C@H]1NC(=O)C1CC1 [Example 1, N-[(2R,3S)-1-[1-(4-Fluorophenyl)-1H-indazol-5-yl]-4,4-dimethyl-5-oxo-2-phenyl-pyrrolidin-3-yl]-cyclopropanecarboxylic acid amide]
9 | 27 |  |  | Cn1cc(-n2ncc3cc(N4C(=O)C5(CC5)[C@H](NC(=O)C5CC5)[C@H]4c4ccccc4)ccc32)ccc1=O (racemic) [Example 30, N-[rac-(6R,7S)-5-[1-(1-Methyl-6-oxo-1H-pyridin-3-yl)-1H-indazol-5-yl]-4-oxo-6-phenyl-5-azaspiro[2.4]heptan-7-yl]-cyclopropanecarboxylic acid amide]
10 | 96 | 1 to 15 |  | Cc1cc(C(=O)N[C@@H]2[C@@H](c3ccccc3)N(c3ccc4c(cnn4-c4ccc(=O)n(C)c4)c3)C(=O)C2(C)C)no1 [Example 7, N-((2R,3S)-4,4-dimethyl-1-(1-(1-methyl-6-oxo-1,6-dihydropyridin-3-yl)-1H-indazol-5-yl)-5-oxo-2-phenylpyrrolidin-3-yl)-5-methylisoxazole-3-carboxamide]
11 | 100 |  |  | CC(F)(F)C(=O)N[C@@H]1[C@@H](c2ccccc2)N(c2ccc3c(cnn3-c3ccc(F)cc3)c2)C(=O)C1(C)C [Example 10, 2,2-Difluoro-N-[(2R,3S)-1-[1-(4-fluorophenyl)-1H-indazol-5-yl]-4,4-dimethyl-5-oxo-2-phenyl-pyrrolidin-3-yl]-propionamide]
12 | 18 |  |  | Cc1cc(C(=O)N[C@H]2[C@H](c3ccccc3)N(c3ccc4c(cnn4-c4ccc(=O)n(C)c4)c3)C(=O)C2(C)C)no1 [Example 22, N-[(2S,3R)-4,4-Dimethyl-1-[1-(1-methyl-6-oxo-1H-pyridin-3-yl)-1H-indazol-5-yl]-5-oxo-2-phenyl-pyrrolidin-3-yl]-5-methyl-isoxazole-3-carboxylic acid amide]
13 | 12 |  |  | Cn1cc(-n2ncc3cc(N4C(=O)C(C)(C)[C@@H](NC(=O)C(C)(F)F)[C@@H]4c4ccccc4)ccc32)ccc1=O [Example 8, N-[(2S,3R)-4,4-Dimethyl-1-[1-(1-methyl-6-oxo-1H-pyridin-3-yl)-1H-indazol-5-yl]-5-oxo-2-phenyl-pyrrolidin-3-yl]-2,2-difluoro-propionamide]
14 | 91 | 0.1 to 1 |  | CC1(C)C(=O)N(c2ccc3c(cnn3-c3ccc(F)cc3)c2)[C@@H](c2ccccc2)[C@@H]1NC(=O)C1CC1 [Example 2, N-[(2S,3R)-1-[1-(4-Fluorophenyl)-1H-indazol-5-yl]-4,4-dimethyl-5-oxo-2-phenyl-pyrrolidin-3-yl]-cyclopropanecarboxylic acid amide]
